Data from US20220160686A1, “MACROCYCLIC AZOLOPYRIDINE DERIVATIVES AS EED AND PRC2 MODULATORS” (Fulcrum Therapeutics, Inc., priority 2019, published 2022).
Read-outs that look alike come from different tables or passages of the source.

How the values were obtained:
EZH2/PRC2 complex = EZH2/PRC2 complex (Homo sapiens, UniProt O75530); test: Histone methyltransferase assay (radioisotope-based HotSpot); type: biochemical; conditions: EZH2/PRC2 complex 10 nM, core histone substrate 0.05 mg/ml, 3H-SAM 1 μM; read-out: IC50, inhibitory effects on the HMT enzyme
Sequence of EZH2/PRC2 complex (O75530 whole entry): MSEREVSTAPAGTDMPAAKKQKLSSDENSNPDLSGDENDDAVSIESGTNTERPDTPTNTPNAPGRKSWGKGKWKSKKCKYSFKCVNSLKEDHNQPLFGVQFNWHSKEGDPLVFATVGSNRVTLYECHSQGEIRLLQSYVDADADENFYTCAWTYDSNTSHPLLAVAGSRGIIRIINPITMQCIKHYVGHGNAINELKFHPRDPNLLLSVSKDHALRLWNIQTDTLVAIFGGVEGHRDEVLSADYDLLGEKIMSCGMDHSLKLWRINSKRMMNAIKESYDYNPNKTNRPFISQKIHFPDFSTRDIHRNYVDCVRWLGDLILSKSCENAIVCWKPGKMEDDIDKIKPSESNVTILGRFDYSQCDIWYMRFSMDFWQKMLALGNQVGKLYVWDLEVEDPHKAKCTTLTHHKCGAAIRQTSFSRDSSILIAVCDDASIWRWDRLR
Sequence of EZH2/PRC2 complex (Q15910 whole entry partner): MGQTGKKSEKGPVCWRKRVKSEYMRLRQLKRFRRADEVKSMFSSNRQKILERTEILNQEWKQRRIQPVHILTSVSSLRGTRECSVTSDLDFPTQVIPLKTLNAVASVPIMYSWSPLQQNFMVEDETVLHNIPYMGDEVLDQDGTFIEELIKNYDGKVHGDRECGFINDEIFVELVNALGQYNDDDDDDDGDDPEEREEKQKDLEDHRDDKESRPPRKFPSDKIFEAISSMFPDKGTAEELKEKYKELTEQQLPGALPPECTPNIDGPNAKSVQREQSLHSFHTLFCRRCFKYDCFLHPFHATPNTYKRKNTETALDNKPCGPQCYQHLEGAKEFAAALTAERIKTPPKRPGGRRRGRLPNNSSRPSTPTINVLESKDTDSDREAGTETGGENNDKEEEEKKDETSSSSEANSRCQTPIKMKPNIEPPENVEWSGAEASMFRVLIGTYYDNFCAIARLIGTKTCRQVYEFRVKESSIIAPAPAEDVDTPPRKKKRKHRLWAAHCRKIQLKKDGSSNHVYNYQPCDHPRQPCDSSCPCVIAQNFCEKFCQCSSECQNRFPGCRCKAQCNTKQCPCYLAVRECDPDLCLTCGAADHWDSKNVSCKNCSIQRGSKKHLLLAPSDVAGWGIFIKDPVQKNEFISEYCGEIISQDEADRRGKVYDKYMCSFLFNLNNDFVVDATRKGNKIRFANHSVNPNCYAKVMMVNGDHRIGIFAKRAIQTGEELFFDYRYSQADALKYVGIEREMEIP
Sequence of EZH2/PRC2 complex (Q15022 whole entry partner): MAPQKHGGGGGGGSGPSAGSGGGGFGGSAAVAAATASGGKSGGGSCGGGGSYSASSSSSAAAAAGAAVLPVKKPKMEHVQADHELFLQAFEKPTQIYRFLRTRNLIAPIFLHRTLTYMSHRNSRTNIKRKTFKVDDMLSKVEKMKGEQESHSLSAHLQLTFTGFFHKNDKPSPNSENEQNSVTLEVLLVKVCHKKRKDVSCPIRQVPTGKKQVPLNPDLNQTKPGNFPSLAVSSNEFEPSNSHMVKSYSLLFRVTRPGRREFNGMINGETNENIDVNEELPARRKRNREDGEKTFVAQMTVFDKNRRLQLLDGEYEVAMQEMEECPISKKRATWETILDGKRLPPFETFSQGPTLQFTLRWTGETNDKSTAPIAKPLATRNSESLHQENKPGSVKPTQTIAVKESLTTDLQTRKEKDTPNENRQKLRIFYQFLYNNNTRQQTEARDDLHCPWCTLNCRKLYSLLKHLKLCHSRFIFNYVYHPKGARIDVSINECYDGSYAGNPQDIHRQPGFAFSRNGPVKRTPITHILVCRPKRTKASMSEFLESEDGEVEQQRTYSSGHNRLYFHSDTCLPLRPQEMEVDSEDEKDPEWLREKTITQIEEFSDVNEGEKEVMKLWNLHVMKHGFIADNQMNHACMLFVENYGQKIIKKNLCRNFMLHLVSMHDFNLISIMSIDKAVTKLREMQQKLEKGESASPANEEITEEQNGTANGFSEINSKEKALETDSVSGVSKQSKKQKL
Experimental: Effect of compounds of the present disclosure on EZH2/PRC2 complex methyltransferase functional activity was measured using the radioisotope-based HotSpot assay described by Horiuchi, K. Y., et al. Assay Drug Dev Technol. 11(4):227-36 (2013). Briefly, compounds were prepared in a 10-point 3-fold serial dilution in DMSO from a 10 mM stock in ECHO qualified plate using Assist Plus (Integra Biosciences) liquid handler. […] Nanoliter quantities of each compound's concentration series were transferred into the enzyme/substrate mix using (Echo 550, LabCyte Inc. Sunnyvale, Calif.) acoustic dispenser and pre-incubated for 20 min at room temperature. The methylation reaction was initiated by the addition of 1 μl of 5 μM S-Adenosyl-L-[methyl-^3H]methionine (^3H-SAM) and incubated at 30° C. for 1 h. The final concentration of the EZH2/PRC2 complex, core histone substrate and ^3H-SAM were 10 nM, 0.05 mg/ml, and 1 μM respectively. The % activity of test samples were calculated with reference to positive (no compound) and negative (no EZH2/PRC2) controls on the plate using Excel (Microsoft). The resulting values were exported to Prism (GraphPad software) to generate concentration response curves and IC50 values using the four-parameter logistic equation.

[1] = test system: human P-glycoprotein HEK cells (HEK-P-gp); test: H3K27me3 immunocytochemistry assay in P-gp expressing HEK293T cells, with or without elacridar; type: cell-based; conditions: Homo sapiens, 4 days compound treatment
In short: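 HEK293T stably expressing human ABCB1 (vinblastine-selected), 1000 cells/well, treated with serially diluted compound for 4 days at 37° C, with or without 250 nM elacridar. Fixed cells stained with anti-H3K27me3 plus Alexa 488 secondary and Hoechst; imaged at 10×, nuclei identified by Hoechst.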

[2] = molecular target: T1, biotinylated AVI-tagged EED (76-441) (Homo sapiens, UniProt O75530); test: EED binding SPR assay; conditions: 1:1 binding model; read-out: KD, equilibrium dissociation constant as measured by surface plasmon resonance (SPR)
T1 construct: GST (N, cleaved yes); made in house; host or cells: E. coli BL21(DE3), co-expressed with pGro7
T1 sequence (O75530 76-441 limits assumed): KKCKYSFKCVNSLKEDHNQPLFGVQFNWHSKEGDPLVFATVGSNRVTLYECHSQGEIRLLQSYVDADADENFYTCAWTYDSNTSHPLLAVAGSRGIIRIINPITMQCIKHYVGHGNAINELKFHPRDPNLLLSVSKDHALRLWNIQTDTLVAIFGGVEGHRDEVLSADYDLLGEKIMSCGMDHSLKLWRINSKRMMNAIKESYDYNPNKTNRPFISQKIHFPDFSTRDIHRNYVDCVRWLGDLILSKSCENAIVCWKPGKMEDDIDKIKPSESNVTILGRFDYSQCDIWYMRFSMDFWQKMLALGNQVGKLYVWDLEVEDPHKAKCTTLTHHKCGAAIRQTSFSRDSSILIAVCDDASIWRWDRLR
Experimental: Biotinylated AVI-tagged EED was produced using standard molecular biology techniques. A pGEX plasmid with a GST-preScission-cleavage-site-AVI-EED(76-441) sequence was placed into E. coli BL21(DE3) cells and co-expressed with pGro7. The E. coli were grown in shaker flasks in LB with ampicillin at 37° C. at 110 rpm to an OD600=0.7. At this time the temperature was lowered to 15° C. and IPTG was added to 0.3 mM. The cells were allowed to express overnight. Cells were then harvested.
For purification, the E. coli cell pellet was lysed into a buffer of 50 mM Tris pH 8.0, 500 mM NaCl, 5% glycerol and 5 mM DTT. The lysate was loaded onto a GSTrap FF column from GE Healthcare. After washing, the bound protein was eluted with 50 mM Tris pH 8.0, 500 mM NaCl, 5% glycerol, 5 mM DTT and 15 mM GSH. The collected fractions were combined and incubated with PreScission enzyme overnight at 4° C. The cleaved protein was then passed through a GSTrap FF column in a buffer of 50 mM Tris pH 8.0, 500 mM NaCl, 5% glycerol and 5 mM DTT. The cleaved protein was confirmed through mass spectrometry. The AVI-EED(76-441) was then buffer exchanged into 50 mM Bicine pH 8.3, 10 mM ATP, 10 mM magnesium acetate and 50 μM D-Biotin. 3 mg of BirA enzyme was added to the system and incubated at 4° C. for 2 hours to biotinylate the AVI-EED(76-441). The biotinylated-AVI-EED(76-441) was then buffer exchanged into 20 mM Tris pH 8.0 and 400 mM NaCl and passed through a size exclusion column of Superdex 200 16/60 Increase. The purified monomeric biotinylated-AVI-EED(76-441) was confirmed through SDS-PAGE, LC-MS and analytical size exclusion chromatography.
All surface plasmon resonance (SPR) assays were performed using a GE Biacore S200 utilizing GE Biotin CAPture chips. Capturing of CAP reagents was performed with a flow rate of 2 μL/min for 90 seconds. For protein capturing, a solution of 50 μg/mL of biotinylated AVI-tagged EED (76-441) in 10 mM HEPES pH 7.4, 150 mM NaCl, 0.05% Tween 20 and 2% DMSO (Running Buffer) was flowed over the chip with a flow rate of 5 μL/min for a contact time of 30 seconds. Final readings were 2200-2400 RU. For compounds, 7 concentrations were made with 3-dilutions using the Running Buffer for a total of 300 μL of each concentration in a 96-well microplate. During the binding experiments, a flow rate of […] was used for an association time of 90 seconds followed by a disassociation time of 180 seconds. The compartment temperature was set at 10° C. with the chip at 25° C. During regeneration the flow rate was set to 30 μL/min for 30 seconds. All fittings were done using a 1:1 binding model.

[3] = HEK293, 96 h, without elacridar, read-out: IC50, inhibitory activity on human P-glycoprotein HEK cells (HEK-P-gp)
[4] = HEK293, with 250 nM elacridar, read-out: IC50, inhibitory activity on human P-glycoprotein HEK cells (HEK-P-gp) pretreated with elacridar

| SMILES | IC50 (EZH2/PRC2 complex) [nM] | Kd [2] [nM] | IC50 [1, 3] [nM] | IC50 [1, 4] [nM] |
| --- | --- | --- | --- | --- |
| Cc1ncccc1-c1cc2c(n3cnnc13)NCc1c(F)ccc3c1[C@H](CO3)CO2 [Compound 185, (R)-12-fluoro-4-(2-methylpyridin-3-yl)-7a,8,13,14-tetrahydro-7H-[1,2,4]triazolo[4′,3′:1,6]pyrido[3,2-b]benzofuro[4,3-fg][1,4]oxazonine] | > 500 | – | > 500 | > 500 |
| Cc1ncccc1-c1cc2c(n3cc(C(=O)O)nc13)NCc1c(F)ccc3c1[C@@H](CO3)CO2 [Compound 177, (S)-5-fluoro-12-(2-methylpyridin-3-yl)-6,7,15,15a-tetrahydro-1H-benzofuro[4,3-fg]imidazo[r,2′:1,6]pyrido[3,2-b][1,4]oxazonine-10-carboxylic acid] | – | 10 to 50 | > 500 | > 500 |
| Cc1cc(-c2cc3c(n4cnnc24)NCc2c(F)ccc4c2[C@@H](CO4)CO3)ncn1 [Compound 161, (S)-12-fluoro-4-(6-methylpyrimidin-4-yl)-7a,8,13,14-tetrahydro-7H-[1,2,4]triazolo[4′,3′:1,6]pyrido[3,2-b]benzofuro[4,3-fg][1,4]oxazonine] | – | 5 to 10 | > 500 | > 500 |

Second part, led by results:

| IC50 (EZH2/PRC2 complex) [nM] | Kd [2] [nM] | SMILES | IC50 [1, 3] [nM] | IC50 [1, 4] [nM] |
| --- | --- | --- | --- | --- |
| > 500 | – | CC(=O)N1CCC(c2cc3c(n4cnnc24)NCc2c(F)cccc2COC3)CC1 [Compound 198, 1-(4-(12-fluoro-6,8,13,14-tetrahydro-[1,2,4]triazolo[4′,3′:1,6]pyrido[3,2-c]benzo[g][1,5]oxazonin-4-yl)piperidin-1-yl)ethan-1-one] | – | – |
| – | < 2.5 | Fc1ccc2c3c1CNc1c(cc(-c4cnco4)c4nncn14)OC[C@@H]3CO2 [Compound 188, (S)-12-fluoro-4-(oxazol-5-yl)-7a,8,13,14-tetrahydro-7H-[1,2,4]triazolo[4′,3′:1,6]pyrido[3,2-b]benzofuro[4,3-fg][1,4]oxazonine] | 100 to 500 | 100 to 500 |
| – | 10 to 50 | Cc1nccc(O)c1-c1cc2c(n3cnnc13)NCc1c(F)ccc3c1C(CO3)CO2 [Compound 192, (S)-3-(12-fluoro-7a,8,13,14-tetrahydro-7H-[1,2,4]triazolo[4′,3′:1,6]pyrido[3,2-b]benzofuro[4,3-fg][1,4]oxazonin-4-yl)-2-methylpyridin-4-ol] | > 500 | > 500 |
